Legend:
[1] = system: interaction of GCN5 with PGC-1α; test: Co-immunoprecipitation of PGC-1α with GCN5 in U-2 OS cells; assay type: cell-based; conditions: endogenous and ectopically expressed GCN5
Procedure: For PGC-1α acetylation detection in hepatocytes cells were infected with Ad-PGC-1α and Ad-GCN5. Cells were collected in RIPA buffer (containing protease inhibitor cocktail, 5 mM NaF, 5 mM β-glycerophosphate, 10 mM nicotinamide, 1 mM DTT and 1 μM trichostatin A). FLAG-HA-PGC-1α was immunoprecipitated overnight at 4° C. with FLAG beads (Sigma A2220). For GCN5 interaction with PGC-1α, U-2 OS cells were infected with Ad-PGC-1α. Nuclear extracts were obtained by lysing cell in Buffer A (10 mM HEPES-KOH (pH 7.9), 10 mM KCl, 1.5 mM MgCl2, 0.5 mM DTT, 0.25% IGEPAL (v/v), 5 mM NaF, 5 mM β-glycerophosphate, 5 mM sodium butyrate and 10 mM nicotinamide), supplemented with Protease Inhibitor Cocktail. Once cytoplasmic fractions were separated, nuclear pellets were lysed in Buffer B (20 mM HEPES-KOH (pH 7.9), 125 mM NaCl, 1 mM EDTA, 1 mM DTT, 1% IGEPAL (v/v), 10% glycerol (v/v), 5 mM NaF, 5 mM β-glycerophosphate, 5 mM sodium butyrate and 10 mM nicotinamide), supplemented with Protease Inhibitor Cocktail. FLAG-HA-PGC-1α was immunoprecipitated with FLAG beads overnight at 4° C. All beads were washed at last 3 times in lysis buffer before eluting in sample loading buffer.

[2] = Food intake and body weight of treated mice; assay type: in vivo
Procedure: All mice were purchased from Jackson laboratories and housed under a 12 h light/12 h dark cycle at 22° C. Before handling, mice were allowed to acclimate for at least 1 week in our animal facility. For in vivo studies with DIO mice, males 6-8 weeks old were fed HFD for the indicated time. For drug administration, SR-18292 was re-suspended in a 10% DMSO/10% Tween80/80% PBS solution at a final concentration of 6-12 mg/ml. Metformin was re-suspended in the same solution at a 20 mg/ml concentration. SR-18292 was injected via I.P. for 3 days between 4-5 pm and food was removed on day 3 at 5 pm. […] Metformin was administered via oral gavage. […] Insulin tolerance test was performed following the same dosing protocol, but mice were fasted for 4 hours after the forth injection before performing the test. Insulin was injected via I.P. (0.5 U/Kg) and blood glucose was measured every 20 minutes. Glycemia was measured by tail bleed using a glucometer (OneTouch). For all experiments, age- and body weight-matched animals were used. For protein, RNA extracts and biochemistry studies, livers were removed following each experiment and snap frozen in liquid nitrogen. For information on number of animals in each experiment please refer to FIGS. 4, 5 and S5 legends. All studies were performed according to protocols approved by Beth Israel Deaconess Medical Center's Animal Care and Use Committee.

In the case of `Cc1ccc(CN(CC(O)COc2cccc3[nH]ccc23)C(C)(C)C)cc1` (stereo not drawn) [SR-18292, 1-((1H-indol-4-yl)oxy)-3-(tert-butyl(4-methylbenzyl)amino)propan-2-ol], the “interaction of GCN5 with PGC-1α” value [1] is reported as “increased”, the food intake ([2]; first 48 hours of treatment) is reported as “neither food intake nor body weight were changed” and the body weight ([2]; mouse, in vivo) is reported as “neither food intake nor body weight were changed”.

— patent publication US11247970B2, “Selective inhibition of gluconeogenic activity” (Dana-Farber Cancer Institute, Inc., priority 2017, dated 2022)
